Like-named read-outs stand apart in the source and are kept apart here.
Columns and labels:
NSCLC = assay: Phase 2 clinical trial in NSCLC by KRAS, EGFR and ALK mutation status; assay type: in vivo, human
Description: Initial cohorts were defined by mutation status: A) EGFR mutation, KRAS wild-type B) EGFR wild-type, KRAS mutation C) EGFR wild-type, KRAS wild-type (WT). If ≧2/14 patients in A, B or C were progression-free at 16 weeks, enrollment increased to 23 patients for that cohort. Tumor response was assessed every 8 weeks. Cohort D was added to include 35 additional EGFR wild-type and KRAS wild-type patients with adenocarcinoma histology. FISH analysis for ALK translocation, was performed for Cohorts C and D.

solid tumors [1] = assay: Phase I dose escalation study, twice-weekly administration in patients with solid tumors; assay type: in vivo, human; details: 41 of 54 enrolled patients assessable; 1-hour infusion 2 times per week, 3 weeks on, 1 week dose-free
Description: An open-label Phase 1 dose-escalation study in subjects with solid tumors was performed. […] The first infusion for the first three subjects was staggered by a minimum of 5 days between subjects. This staggered enrollment scheme was followed for the first cohort only.
Subsequent cohorts were originally planned to receive escalating doses of 4, 7, 10, 14, 19, 25, 33, 40 and 48 mg/m^2, provided that the previous dose was well-tolerated during cycle 1 (week 1-4). The dose escalation scheme was updated to 25, 50, 75 and 100 mg/m^2, provided that the previous dose was well-tolerated during cycle 1. Following the completion of enrollment at 50 mg/m^2 twice per week, subsequent cohorts were to be treated at 100 mg/m^2 (100% increase above prior dose) and 120 mg/m^2 (20% increase above prior dose), with further dose increments to be approximately 20% over the previous dose level, until the maximum tolerated dose (MTD) was determined. Enrollment was completed at 100 mg/m^2 and the next doses planned were 120 mg/m^2 and 144 mg/m^2.
There had to be at least three evaluable subjects in a cohort before dose escalation could occur. […] Once a subject experienced a DLT the cohort was expanded to six subjects. If only 1 of 6 subjects experienced a DLT, further dose escalation was allowed. However, if 2 of 3 or 2 of 6 subjects experienced a DLT, dose escalation terminated. […]

solid tumors [2] = assay: Phase 2 study in solid tumors, twice-weekly infusion; assay type: in vivo, human
Source text: (§1) Serial PK and pharmacodynamic samples were obtained during cycle 1. Safety assessments included frequency and grade of adverse events (AEs), laboratory parameters and ECG changes.

[3] = test system: human KRAS mutant NSCLC tumor xenografts; assay: KRAS mutant NSCLC tumor xenografts in vivo; design: species or system mouse; details: single agent
Description: Female immunodeficient CD-1 (nude) mice (Charles River Laboratories, Wilmington, Mass.) were maintained in a pathogen-free environment, and all in vivo procedures were approved by the Synta Pharmaceuticals Corp. Institutional Animal Care and Use Committee. A549 NSCLC cells (7.5×10^6) were subcutaneously implanted into the animals. […] Tumor growth inhibition was determined as described previously. See Proia et al, PLoS One. 2011; 6(4):e18552.

[4] = test system: Hsp90 client proteins in AGS gastric cancer cells; assay: Western blot of Hsp90 client proteins, AGS; assay type: cell-based
[5] = Pharmacokinetics in the Phase 1 combination trial with docetaxel; assay type: in vivo, human; details: patients
Description: A trial to evaluate three dose-level combinations of docetaxel and the compound of formula (I), administered on a three-week cycle, with the primary objective of determining an optimal dose for future clinical trials was performed. […] The standard of care dose level for docetaxel was 75 mg/m^2. A total of 19 patients received at least one dose of study treatment at the cut-off time. The median number of cycles of treatment was 4, with a range of 1 to 11 cycles of treatment. No prophylactic treatment for neutropenia was used.

[6] = test system: Detroit 562 H/N cancer cells; assay: Single agent viability assay, Detroit 562, 72 hr; assay type: cell-based
Source text: Head and neck (H/N) cancer refers to a group of biologically similar cancers originating from the upper autodigestive tract. First line therapies include EGFR inhibitors and platins.

Hs746T = assay: 72 hr viability by Syto60, Hs746T; assay type: cell-based; details: Homo sapiens
Description: Many of the oncoproteins associated with gastric cancer and Hsp90 client proteins including HER2, MET, RAS and the FGFR family. […] Cells were treated for 72 hr and viability determined by CTG (upper) or Syto60 (lower).

[7] = Serial PK in patients with solid tumors, twice-weekly infusion; assay type: in vivo, human
Source text: as §1

[8] = test system: MET, IGF-IR, AKT in MKN45 cells; assay: Western blot of Hsp90 client proteins, MKN45; assay type: cell-based
GIST = assay: Phase 2 study in gastrointestinal stromal tumors (GIST); assay type: in vivo, human
Description: GIST status was assessed at 8 weeks per RECIST, until progression.

HCC70 = assay: 72 hr viability by CTG, HCC70; assay type: cell-based; details: Homo sapiens, HCC70, Basal A
Description: Breast cancer is a heterogeneous disease historically broken down into 4 subtypes. Various compounds were tested for their effects in cell viability assays using various breast cancer cell lines. Cellular viability was assessed using the CellTiter-Glo® Luminescent Cell Viability Assay (Promega, Madison, Wis., USA) according to the manufacturer's protocol. […] were seeded into 96-well plates based on optimal growth rates determined empirically for each line. […] CellTiter-Glo® was added (50% v/v) to the cells, and the plates incubated for 10 min prior to luminescent detection in a SpectraMax® Plus 384 microplate reader (Molecular Devices, Sunnyvale, Calif., USA). Data were normalized to percent of control and IC50 values used to determine the sensitivity of each line.

[9] = test system: Chk1 and Chk2 phosphorylation in Detroit 562 head and neck cancer cells; assay: Western blot after bleomycin, Detroit 562; assay type: cell-based; details: 100 nM 24 hours prior to bleomycin (5 μM)
Description: Protein expression of Parp, P-Chk1, P-Chk2, and Gapdh (control) was measured at the indicated time points (1, 4, and 8 hours) after bleomycin treatment.
Protein expression was measured at the indicated time points after bleomycin treatment.

Description for metastatic breast cancer: The primary endpoint of the trial was overall response rate using RECIST 1.1. Patients with HER2+ breast cancer were required to have received prior therapy with trastuzumab. No more than 3 lines of chemotherapy in the metastatic setting were permitted, but there was no limit on prior lines of hormone therapy. Patients were evaluated for response after 2 cycles. The trial used a Simon two-stage design requiring at least 3 responses among the first 22 patients, to allow expansion to a total of 40 patients.

CC(C)c1cc(-c2nnc(O)n2-c2ccc3c(ccn3C)c2)c(O)cc1O [compound of formula (I), ganetespib]
Adverse events reported in >20% of patients (NSCLC; 73 patients, 200 mg/m^2 once weekly for 3 of a 4-wk cycle, generally grade 1-2): diarrhea, fatigue, nausea, anorexia, constipation, and dyspnea | Objective response rate (CR + PR) (NSCLC; ALK+ patients, 4/8): 50% | Best response reported, cohort C (NSCLC; Cohort C: EGFR wild-type, KRAS wild-type): durable partial response (PR) | Tolerability (NSCLC; single agent, 200 mg/m^2 once weekly): well-tolerated in patients with NSCLC at 200 mg/m^2 once weekly without severe liver, ocular, cardiovascular or renal toxicity | Confirmed partial responses, melanoma (solid tumors [1]): 1 patient | Confirmed partial responses, triple negative breast cancer (solid tumors [1]): 1 patient | Tolerability (solid tumors [2]; twice-weekly): well-tolerated administered twice-weekly | Response in a patient with metastatic melanoma (solid tumors [2]; twice-weekly dosing): confirmed durable PR by RECIST | Growth of tumor xenografts [3]: effectively suppressed the growth | Effect on B-RAF expression [4]: enhanced B-RAF expression | Effect on Hsp90 client protein expression [4]: abolished the expression of EGFR, IGF-IR, C-RAF and their down-stream effectors PI3K/AKT and MAPK | Effect on docetaxel pharmacokinetics [5]: no effect | Pharmacokinetics alone versus administered prior to docetaxel [5]: pharmacokinetic similarity | CBR (CR + PR + SD > 6 months) (metastatic breast cancer; ER+/HER2− (N = 6)): 0 patients | CR (metastatic breast cancer; ER+/HER2− (N = 6)): 0 patients | ORR (metastatic breast cancer; ER+/HER2− (N = 6)): 0 patients | PR (metastatic breast cancer; ER+/HER2− (N = 6)): 0 patients | CBR (CR + PR + SD > 6 months) (metastatic breast cancer; HER2+ (N = 13)): 2 (9%) patients (%) | CR (metastatic breast cancer; HER2+ (N = 13)): 0 patients | ORR (metastatic breast cancer; HER2+ (N = 13)): 2 (9%) patients (%) | PR (metastatic breast cancer; HER2+ (N = 13)): 2 patients | CBR (CR + PR + SD > 6 months) (metastatic breast cancer; TNBC (N = 3)): 0 patients | CR (metastatic breast cancer; TNBC (N = 3)): 0 patients | ORR (metastatic breast cancer; TNBC (N = 3)): 0 patients | PR (metastatic breast cancer; TNBC (N = 3)): 0 patients | CBR (CR + PR + SD > 6 months) (metastatic breast cancer; Total (N = 22)): 2 (9%) patients (%) | CR (metastatic breast cancer; Total (N = 22)): 0 patients | PR (metastatic breast cancer; Total (N = 22)): 2 (9%) patients (%) | ORR (metastatic breast cancer; Total (N = 22), 200 mg/m^2 once weekly 3 weeks of 28 day cycle, RECIST 1.1): 2 (9%) patients (%) | Extent of cell kill after 72 hr exposure [6]: A fraction of cells remained viable | IC50 (Hs746T): 384 nM | Distribution [7]: rapid distribution | Effect on MET, IGF-IR and AKT [8]: complete degradation of MET and IGF-IR, followed by inactivation of AKT | Patients with SD≧8 wks (GIST; 23 evaluable patients): 8 patients | Patients with SD≧16 wks (GIST; 23 evaluable patients): 4 patients | Tolerability (GIST; once-weekly dosing): well-tolerated in patients with heavily pre-treated advanced GIST, with no evidence of severe liver, ocular, cardiac or renal toxicity | IC50 (HCC70): 114 nM | Effect on bleomycin-increased Chk1 and Chk2 phosphorylation [9]: blocked

— US20140135370A1, “TREATING CANCER WITH AN HSP90 INHIBITORY COMPOUND” (SYNTA PHARMACEUTICALS CORP., priority 2011, published 2014)
